Literature values as cited in patent US20100137787A1, “Delivery devices for modulating inflammation” (Searete LLC, a limited liability corporation of the State …, priority 2008, published 2010).
Values belong to the compound of their own block, whether it stands above or below them.

Experiments:
[1] = biological target: Toll-like receptor 4 (Homo sapiens, UniProt O00206)
[2] = single agent, infused at 400 mg over one hour
[3] = system: aldehyde dehydrogenase

Toll-like receptor 4, sequence (O00206 24-839, species assumed): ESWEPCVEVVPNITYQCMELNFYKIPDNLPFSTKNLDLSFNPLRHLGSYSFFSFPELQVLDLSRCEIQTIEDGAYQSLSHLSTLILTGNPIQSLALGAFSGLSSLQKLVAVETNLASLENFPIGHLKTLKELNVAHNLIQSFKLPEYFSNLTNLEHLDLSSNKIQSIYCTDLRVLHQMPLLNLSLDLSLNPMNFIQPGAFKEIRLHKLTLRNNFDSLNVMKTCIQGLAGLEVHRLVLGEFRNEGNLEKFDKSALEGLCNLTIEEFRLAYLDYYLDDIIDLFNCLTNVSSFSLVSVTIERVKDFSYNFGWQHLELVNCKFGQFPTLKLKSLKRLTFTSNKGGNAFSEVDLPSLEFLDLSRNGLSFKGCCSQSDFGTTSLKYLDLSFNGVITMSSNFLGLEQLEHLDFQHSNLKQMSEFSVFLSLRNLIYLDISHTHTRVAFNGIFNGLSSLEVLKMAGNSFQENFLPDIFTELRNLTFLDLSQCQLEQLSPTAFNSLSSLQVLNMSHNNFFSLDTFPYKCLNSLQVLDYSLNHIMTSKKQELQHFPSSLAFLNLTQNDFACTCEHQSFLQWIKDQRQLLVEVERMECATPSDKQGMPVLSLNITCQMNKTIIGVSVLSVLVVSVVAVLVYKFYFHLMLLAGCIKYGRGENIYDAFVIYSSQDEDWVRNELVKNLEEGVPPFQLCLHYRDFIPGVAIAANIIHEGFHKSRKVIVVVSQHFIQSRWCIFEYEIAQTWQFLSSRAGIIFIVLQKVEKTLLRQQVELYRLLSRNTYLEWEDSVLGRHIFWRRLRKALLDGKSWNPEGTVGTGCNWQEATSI

inhibitor of Toll-like receptor 4 [1]: inhibitor of Toll-like receptor 4
Compound: Cl.Cl.Nc1ccccc1Oc1ccc2c(N)nsc2c1 [Example M62812, 3-amino-6-(2-aminophenoxy)-1,2-benzisothiazole dihydrochloride]

Compound: CCN(CC)CCCC(C)Nc1ccnc2cc(Cl)ccc12.O=P(O)(O)O.O=P(O)(O)O (stereo not shown) [chloroquine phosphate, 7-chloro-4-[[4-(diethylamino)-1-methylbutyl]amino]quinoline phosphate (1:2)]
tolerability of infusion [2]: without complication

inhibition of aldehyde dehydrogenase [3]: inhibits
Compound: CCN(CC)C(=S)SSC(=S)N(CC)CC [disulfiram, 1-(diethylthiocarbamoyldisulfanyl)-N,N-diethyl-methanethioamide]
toxicity accompanying aldehyde dehydrogenase inhibition [3]: without toxicity
